Target: recombinant human SAE enzyme (Homo sapiens (Human), UniProt Q9UBT2)
Experiment: SAE HTRF enzyme assay
Format: biochemical
Conditions: for inhibition at 0.111 µM: read-out: Percent Inhibition
In short: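 Human SAE (0.11 nM) with 0.5 μM ATP, 0.125 μM Sumo-Flag and 0.01 μM Ubc9-GST in HEPES pH 7.5, 5 mM MgCl2, 250 μM GSH; 105 min at 24 °C. Stopped with EDTA; HTRF read after 2 h with Eu-anti-Flag and APC-anti-GST. Percent inhibition or IC50 reported.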

[1] = SAE inhibition at compound concentration 0.111 μM
[2] = SAE inhibition, class symbols, legend in nM

recombinant human SAE enzyme, sequence (Q9UBT2 whole entry): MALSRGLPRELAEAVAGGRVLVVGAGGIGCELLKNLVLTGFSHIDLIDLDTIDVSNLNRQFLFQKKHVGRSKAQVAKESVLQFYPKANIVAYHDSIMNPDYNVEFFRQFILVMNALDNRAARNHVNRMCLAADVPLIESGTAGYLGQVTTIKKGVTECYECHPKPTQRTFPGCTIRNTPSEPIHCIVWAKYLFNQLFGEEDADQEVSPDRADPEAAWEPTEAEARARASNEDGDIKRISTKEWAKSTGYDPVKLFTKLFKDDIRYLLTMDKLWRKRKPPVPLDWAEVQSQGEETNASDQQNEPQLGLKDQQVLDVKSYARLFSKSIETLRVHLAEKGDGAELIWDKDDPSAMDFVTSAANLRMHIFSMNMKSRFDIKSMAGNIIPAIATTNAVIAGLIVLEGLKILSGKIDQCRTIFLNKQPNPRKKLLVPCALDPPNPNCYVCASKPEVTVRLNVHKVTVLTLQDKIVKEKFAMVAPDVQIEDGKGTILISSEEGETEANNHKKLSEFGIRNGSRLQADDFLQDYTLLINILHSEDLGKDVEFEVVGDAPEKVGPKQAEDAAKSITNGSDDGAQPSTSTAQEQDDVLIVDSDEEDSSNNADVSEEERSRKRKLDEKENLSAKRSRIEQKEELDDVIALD
recombinant human SAE enzyme, sequence (Q9UBE0 whole entry partner): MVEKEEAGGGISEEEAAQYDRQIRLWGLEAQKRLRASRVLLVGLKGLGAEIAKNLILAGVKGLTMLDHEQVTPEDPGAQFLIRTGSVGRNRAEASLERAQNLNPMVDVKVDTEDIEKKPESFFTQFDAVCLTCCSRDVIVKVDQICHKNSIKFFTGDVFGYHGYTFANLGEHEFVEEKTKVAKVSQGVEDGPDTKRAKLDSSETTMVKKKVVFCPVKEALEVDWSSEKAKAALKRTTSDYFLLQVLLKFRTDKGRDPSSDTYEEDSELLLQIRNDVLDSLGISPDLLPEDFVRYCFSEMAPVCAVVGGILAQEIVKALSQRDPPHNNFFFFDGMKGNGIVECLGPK

CC(C)(C)OC(=O)N1CCc2ccc(Cl)cc2[C@@H]1c1csc(C(=O)c2cncnc2N[C@@H]2C[C@H](COS(N)(=O)=O)[C@@H](O)C2)c1.CC(C)(C)OC(=O)N1CCc2ccc(Cl)cc2[C@H]1c1csc(C(=O)c2cncnc2N[C@@H]2C[C@H](COS(N)(=O)=O)[C@@H](O)C2)c1 (mixture of isomers) [I-334, tert-butyl (1R)-7-chloro-1-(5-{[4-({(1R,3S,4R)-3-hydroxy-4-[(sulfamoyloxy)methyl]cyclopentyl}amino)pyrimidin-5-yl]carbonyl}-3-thienyl)-3,4-dihydroisoquinoline-2(1H)-carboxylate and tert-butyl (1S)-7-chloro-1-(5-{[4-({(1R,3S,4R)-3-hydroxy-4-[(sulfamoyloxy)methyl]cyclopentyl}amino)pyrimidin-5-yl]carbonyl}-3-thienyl)-3,4-dihydroisoquinoline-2(1H)-carboxylate]
Percent Inhibition [1]: 10%
IC50 [2]: 100 to 1000 nM

Cc1cc2n(n1)CCO[C@H]2c1csc(C(=O)c2cncnc2N[C@@H]2C[C@H](COS(N)(=O)=O)[C@@H](O)C2)c1 (mixture of isomers) [I-332, [(1R,2S,4R)-2-hydroxy-4-{[5-({4-[(4S)-2-methyl-6,7-dihydro-4H-pyrazolo[5,1-c][1,4]oxazin-4-yl]-2-thienyl}carbonyl)pyrimidin-4-yl]amino}cyclopentyl]methyl sulfamate and [(1R,2S,4R)-2-hydroxy-4-{[5-({4-[(4R)-2-methyl-6,7-dihydro-4H-pyrazolo[5,1-c][1,4]oxazin-4-yl]-2-thienyl}carbonyl)pyrimidin-4-yl]amino}cyclopentyl]methyl sulfamate]
Percent Inhibition [1]: 25%
IC50 [2]: 100 to 1000 nM

Cc1sc(C(=O)c2cncnc2N[C@@H]2C[C@H](COS(N)(=O)=O)[C@@H](O)C2)cc1[C@@H]1OCCc2ccsc21 (single isomer, unassigned) [I-269a, [(1R,2S,4R)-4-{[5-({4-[(7S)-4,7-dihydro-5H-thieno[2,3-c]pyran-7-yl]-5-methyl-2-thienyl}carbonyl)pyrimidin-4-yl]amino}-2-hydroxycyclopentyl]methyl sulfamate or [(1R,2S,4R)-4-{[5-({4-[(7R)-4,7-dihydro-5H-thieno[2,3-c]pyran-7-yl]-5-methyl-2-thienyl}carbonyl)pyrimidin-4-yl]amino}-2-hydroxycyclopentyl]methyl sulfamate]
Percent Inhibition (Concentration 0.111 μM): 101
IC50 (class symbols A/B/C): < 10 nM

Cc1sc(C(=O)c2cncnc2N[C@@H]2C[C@H](COS(N)(=O)=O)[C@@H](O)C2)cc1Cn1cc(Br)cn1 [I-39, [(1R,2S,4R)-4-{[5-({4-[(4-bromo-1H-pyrazol-1-yl)methyl]-5-methyl-2-thienyl}carbonyl)pyrimidin-4-yl]amino}-2-hydroxycyclopentyl]methyl sulfamate]
inhibition at 0.111 µM (Concentration 0.111 μM): 98%

NS(=O)(=O)OC[C@H]1C[C@@H](Nc2ncncc2C(=O)c2cc([C@@H]3NCCCc4ccccc43)c(Cl)s2)C[C@@H]1O (mixture of isomers) [I-319, [(1R,2S,4R)-4-{[5-({5-chloro-4-[(1R)-2,3,4,5-tetrahydro-1H-2-benzazepin-1-yl]-2-thienyl}carbonyl)pyrimidin-4-yl]amino}-2-hydroxycyclopentyl]methyl sulfamate and [(1R,2S,4R)-4-{[5-({5-chloro-4-[(1S)-2,3,4,5-tetrahydro-1H-2-benzazepin-1-yl]-2-thienyl}carbonyl)pyrimidin-4-yl]amino}-2-hydroxycyclopentyl]methyl sulfamate]
Percent Inhibition [1]: 94%
IC50 [2]: < 10 nM

Cc1sc(C(=O)c2cncnc2N[C@@H]2C[C@H](COS(N)(=O)=O)[C@@H](O)[C@@H]2F)cc1[C@H]1OCCc2ccc(Cl)cc21 (single isomer, unassigned) [I-264b, [(1R,2R,3R,4R)-4-{[5-({4-[(1S)-7-chloro-3,4-dihydro-1H-isochromen-1-yl]-5-methyl-2-thienyl}carbonyl)pyrimidin-4-yl]amino}-3-fluoro-2-hydroxycyclopentyl]methyl sulfamate or [(1R,2R,3R,4R)-4-{[5-({4-[(1R)-7-chloro-3,4-dihydro-1H-isochromen-1-yl]-5-methyl-2-thienyl}carbonyl)pyrimidin-4-yl]amino}-3-fluoro-2-hydroxycyclopentyl]methyl sulfamate]
Percent Inhibition (Concentration 0.111 μM): 98
IC50 (class symbols A/B/C): < 10 nM

NS(=O)(=O)OC[C@H]1C[C@@H](Nc2ncncc2C(=O)c2cc([C@@H]3OCCc4cc(F)c(F)cc43)c(Cl)s2)C[C@@H]1O (single isomer, unassigned) [I-290b, [(1R,2S,4R)-4-{[5-({5-chloro-4-[(1R)-6,7-difluoro-3,4-dihydro-1H-isochromen-1-yl]-2-thienyl}carbonyl)pyrimidin-4-yl]amino}-2-hydroxycyclopentyl]methyl sulfamate or [(1R,2S,4R)-4-{[5-({5-chloro-4-[(1S)-6,7-difluoro-3,4-dihydro-1H-isochromen-1-yl]-2-thienyl}carbonyl)pyrimidin-4-yl]amino}-2-hydroxycyclopentyl]methyl sulfamate]
Percent Inhibition [1]: 97%
IC50 [2]: < 10 nM

NS(=O)(=O)OC[C@H]1C[C@@H](Nc2ncncc2C(=O)c2cc(Cl)c([C@H](O)c3cccc(Cl)c3)s2)C[C@@H]1O (single isomer, unassigned) [I-151b, [(1R,2S,4R)-4-{[5-({4-chloro-5-[(R)-(3-chlorophenyl)(hydroxy)methyl]-2-thienyl}carbonyl)pyrimidin-4-yl]amino}-2-hydroxycyclopentyl]methyl sulfamate or [(1R,2S,4R)-4-{[5-({4-chloro-5-[(S)-(3-chlorophenyl)(hydroxy)methyl]-2-thienyl}carbonyl)pyrimidin-4-yl]amino}-2-hydroxycyclopentyl]methyl sulfamate]
Percent Inhibition (Concentration 0.111 μM): 93
IC50 (class symbols A/B/C): < 10 nM

NS(=O)(=O)OC[C@H]1C[C@@H](Nc2ncncc2C(=O)c2cc([C@@H]3OCCc4cnc(Cl)cc43)c(Cl)s2)C[C@@H]1O (mixture of isomers) [I-323, [(1R,2S,4R)-4-{[5-({5-chloro-4-[(1R)-7-chloro-3,4-dihydro-1H-pyrano[4,3-c]pyridin-1-yl]-2-thienyl}carbonyl)pyrimidin-4-yl]amino}-2-hydroxycyclopentyl]methyl sulfamate and [(1R,2S,4R)-4-{[5-({5-chloro-4-[(1S)-7-chloro-3,4-dihydro-1H-pyrano[4,3-c]pyridin-1-yl]-2-thienyl}carbonyl)pyrimidin-4-yl]amino}-2-hydroxycyclopentyl]methyl sulfamate]
Percent Inhibition [1]: 90%
IC50 [2]: 10 to 100 nM

Cc1sc(C(=O)c2cncnc2N[C@@H]2C[C@H](COS(N)(=O)=O)[C@@H](O)C2)nc1[C@H](O)c1cccc(Cl)c1 (single isomer, unassigned) [I-355b, [(1R,2S,4R)-4-{[5-({4-[(R)-(3-chlorophenyl)(hydroxy)methyl]-5-methyl-1,3-thiazol-2-yl}carbonyl)pyrimidin-4-yl]amino}-2-hydroxycyclopentyl]methyl sulfamate or [(1R,2S,4R)-4-{[5-({4-[(S)-(3-chlorophenyl)(hydroxy)methyl]-5-methyl-1,3-thiazol-2-yl}carbonyl)pyrimidin-4-yl]amino}-2-hydroxycyclopentyl]methyl sulfamate]
Percent Inhibition [1]: 71%
IC50 [2]: 10 to 100 nM

Cc1sc(C(=O)c2cncnc2N[C@@H]2C[C@H](COS(N)(=O)=O)[C@@H](O)C2)cc1[C@@H]1OCCc2ccc(Cl)c(F)c21 (mixture of isomers) [I-303, [(1R,2S,4R)-4-{[5-({4-[(1R)-7-chloro-8-fluoro-3,4-dihydro-1H-isochromen-1-yl]-5-methyl-2-thienyl}carbonyl)pyrimidin-4-yl]amino}-2-hydroxycyclopentyl]methyl sulfamate and [(1R,2S,4R)-4-{[5-({4-[(1S)-7-chloro-8-fluoro-3,4-dihydro-1H-isochromen-1-yl]-5-methyl-2-thienyl}carbonyl)pyrimidin-4-yl]amino}-2-hydroxycyclopentyl]methyl sulfamate]
Percent Inhibition [1]: 99%
IC50 [2]: < 10 nM

Cc1nc2n(c1C)CCO[C@@H]2c1cc(C(=O)c2cncnc2N[C@@H]2C[C@H](COS(N)(=O)=O)[C@@H](O)C2)sc1C (mixture of isomers) [I-356, ((1R,2S,4R)-4-{(5-(4-((R)-2,3-dimethyl-6,8-dihydro-5H-imidazo[2,1-c][1,4c]oxazin-8-yl)-5-methylthiophene-2-carbonyl)pyrimidin-4-yl)amino)-2-hydroxycyclopentyl)methyl sulfamate and ((1R,2S,4R)-4-((5-4-((S)-2,3-dimethyl-6,8-dihydro-5H-imidazo[2,1-c][1,4]oxazin-8-yl)-5-methylthiophene-2-carbonyl)pyrimidin-4-yl)amino)-2-hydroxycyclopentyl)methyl sulfamate]
Percent Inhibition [1]: 97%
IC50 [2]: < 10 nM

Cc1ccc(Cc2csc(C(=O)c3cncnc3N[C@@H]3C[C@H](COS(N)(=O)=O)[C@@H](O)C3)c2)o1 [I-237, [(1R,2S,4R)-2-Hydroxy-4-{[5-({4-[(5-methyl-2-furyl)methyl]-2-thienyl}carbonyl)pyrimidin-4-yl]amino}cyclopentyl]methyl sulfamate]
inhibition at 0.111 µM (Concentration 0.111 μM): 25%
IC50 (class symbols A/B/C): 100 to 1000 nM

C#Cc1ccc2c(c1)[C@H](c1cc(C(=O)c3cncnc3N[C@@H]3C[C@H](COS(N)(=O)=O)[C@@H](O)C3)sc1C)OCC2 (single isomer, unassigned) [I-252a, [(1R,2S,4R)-4-{[5-({4-[(1R)-7-ethynyl-3,4-dihydro-1H-isochromen-1-yl]-5-methyl-2-thienyl}carbonyl)pyrimidin-4-yl]amino}-2-hydroxycyclopentyl]methyl sulfamate or [(1R,2S,4R)-4-{[5-({4-[(1S)-7-ethynyl-3,4-dihydro-1H-isochromen-1-yl]-5-methyl-2-thienyl}carbonyl)pyrimidin-4-yl]amino}-2-hydroxycyclopentyl]methyl sulfamate]
Percent Inhibition (Concentration 0.111 μM): 71
IC50 (class symbols A/B/C): 10 to 100 nM

Source: patent publication US10780090B2, “Heteroaryl compounds useful as inhibitors of SUMO activating enzyme” (Millennium Pharmaceuticals, Inc., priority 2014, dated 2020)
